Reference: paper PMC7773174 (Tetrahedron letters, 2020)
Converted amounts (≈) assume the structure as drawn.

What was measured:
MRSA = settings: cited from earlier work
[1] = Partition coefficient by extraction with n-octanol and deionized water; format: physicochemical
[2] = tested on: CA-MRSA (Staphylococcus aureus USA 300-0114); assay: MIC, broth dilution antimicrobial susceptibility; format: cell-based; settings: S. aureus USA 300-0114; highest value of three independent trials
[3] = tested on: Enterococcus faecalis (OG1RF); assay: MIC, broth dilution antimicrobial susceptibility; format: cell-based; settings: highest value of three independent trials
[4] = tested on: red blood cell (RBC), mechanically defibrillated sheep's blood; format: cell-based
[5] = tested on: Escherichia coli (MC4100); assay: MIC, broth dilution antimicrobial susceptibility; format: cell-based; settings: highest value of three independent trials
[6] = tested on: Pseudomonas aeruginosa (PAO1); assay: MIC, broth dilution antimicrobial susceptibility; format: cell-based; settings: highest value of three independent trials
[7] = tested on: plasma binding proteins, namely retinoid binding proteins; assay: Binding to plasma binding proteins; format: in vitro ADME; settings: unpublished data
[8] = tested on: MSSA (Staphylococcus aureus SH1000); assay: MIC, broth dilution antimicrobial susceptibility; format: cell-based; settings: S. aureus SH1000; highest value of three independent trials
[9] = tested on: HA-MRSA (Staphylococcus aureus ATCC 33591); assay: MIC, broth dilution antimicrobial susceptibility; format: cell-based; settings: S. aureus ATCC 33591; highest value of three independent trials
Solubility within serum = format: physicochemical; settings: preliminary analysis

| Compound | minimum inhibitory concentration (MIC) (MRSA; ref [5]) [µg/mL] | P (partition coefficient) ([1]; average over 3 independent trials) | logP ([1]; triplicate, ± standard deviation) | Minimum Inhibitory Concentration CA-MRSA [2] [µM] | Minimum Inhibitory Concentration E. faecalis [3] [µM] | Lysis20 [4] [µM] | Minimum Inhibitory Concentration E. coli [5] [µM] | MIC (MRSA; ref [6]–[7]) [µg/mL] | Minimum Inhibitory Concentration P. aeruginosa [6] [µM] | binding to plasma binding proteins [7] | Minimum Inhibitory Concentration MSSA [8] [µM] | Minimum Inhibitory Concentration HA-MRSA [9] [µM] | solubility within serum (Solubility within serum) |
| --- | --- | --- | --- | --- | --- | --- | --- | --- | --- | --- | --- | --- | --- |
| O=C(O)c1ccc2cc(-c3ccc(O)c(C45CC6CC(CC(C6)C4)C5)c3)ccc2c1 [Compound 1, CD437, reference compound] | 1 (≈ 2.51 µM) | – | – | – | – | – | – | – | – | – | – | – | – |
| OCc1ccc2cc(-c3ccc(O)c(C45CC6CC(CC(C6)C4)C5)c3)ccc2c1 [Compound 2] | – | 9.16 | 0.93 ± 0.20 | 2 | >250 | 125 | >250 | 2 (≈ 5.2 µM) | >250 | high levels of binding | 2 | 2 | low solubility |
| benzalkonium chloride [BAC, reference compound] | – | – | – | 4 | 125 | 32 | 32 | – | 125 | – | 2 | 4 | – |
